# Data as given in ChEMBL document CHEMBL3508693 (2016).
# Assays:
# [1] = Terminal elimination half-life of SPP100 following single oral dose of SPP100 600 mg capsule studied in healthy human; assay type: ADME, organism-based; settings: plasma
# [2] = % of radioactivity recovered as aliskiren in plasma following oral administration of [14C] aliskiren hemifumarate at 100 mg.Kg-1 level in rat; assay type: ADME, organism-based, Albino HAN:WIST; settings: in vivo
# CYP2C19 = CYP2C19 (Homo sapiens, UniProt P33261); assay: Inhibitory activity of 20 uM SPP100 on 1174 Pmoles of cDNA-derived CYP2C19 enzyme in microsome prepared from human lymphoblastoid cell line; assay type: ADME, microsomes; design: conc 20 uM, interact cpd conc 50 uM; settings: probe (S)-mephenytoin
# CYP2C19, sequence (P33261 whole entry): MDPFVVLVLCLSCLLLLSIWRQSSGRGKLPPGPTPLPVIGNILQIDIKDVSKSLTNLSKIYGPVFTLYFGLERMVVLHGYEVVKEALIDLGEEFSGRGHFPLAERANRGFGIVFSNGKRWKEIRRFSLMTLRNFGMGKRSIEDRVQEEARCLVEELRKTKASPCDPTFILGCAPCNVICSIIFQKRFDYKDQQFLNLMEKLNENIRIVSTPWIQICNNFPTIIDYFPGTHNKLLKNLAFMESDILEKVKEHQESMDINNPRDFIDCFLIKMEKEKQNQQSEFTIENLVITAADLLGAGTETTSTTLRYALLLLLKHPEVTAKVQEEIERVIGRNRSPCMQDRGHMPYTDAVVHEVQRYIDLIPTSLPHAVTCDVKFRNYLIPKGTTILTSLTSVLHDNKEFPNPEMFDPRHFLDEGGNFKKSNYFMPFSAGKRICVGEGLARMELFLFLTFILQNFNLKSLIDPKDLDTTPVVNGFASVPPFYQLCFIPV
# CYP1A2 = biological target: T1, CYP1A2 (Homo sapiens, UniProt P05177); assay: Inhibitory activity of 200 uM SPP100 on 578 Pmoles of cDNA-derived CYP1A2 enzyme in microsome prepared from human lymphoblastoid cell line; assay type: ADME, microsomes; design: conc 200 uM, interact cpd conc 50 uM; settings: probe phenacetin
# T1 sequence (P05177 whole entry): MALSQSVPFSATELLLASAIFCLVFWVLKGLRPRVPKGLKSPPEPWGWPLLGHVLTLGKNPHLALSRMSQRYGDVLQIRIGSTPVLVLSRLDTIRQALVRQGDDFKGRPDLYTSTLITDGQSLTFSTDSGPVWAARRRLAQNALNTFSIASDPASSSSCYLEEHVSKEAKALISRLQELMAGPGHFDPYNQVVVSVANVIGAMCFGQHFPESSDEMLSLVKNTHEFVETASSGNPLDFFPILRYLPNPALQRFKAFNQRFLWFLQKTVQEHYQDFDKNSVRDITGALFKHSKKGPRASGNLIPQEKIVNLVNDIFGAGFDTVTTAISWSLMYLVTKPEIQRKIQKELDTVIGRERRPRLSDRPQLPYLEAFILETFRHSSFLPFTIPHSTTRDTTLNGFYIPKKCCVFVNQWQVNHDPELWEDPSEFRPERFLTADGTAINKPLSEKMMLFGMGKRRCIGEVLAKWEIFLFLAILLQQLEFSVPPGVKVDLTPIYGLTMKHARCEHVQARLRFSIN
# [3] = Mean excretion of radioactivity (0-24h) in urine and faeces following single oral dose of 100 mg.Kg-1 [14C] aliskiren hemifumarate in rat; assay type: ADME, organism-based, Albino HAN:WIST, Urine/Feces; settings: in vivo
# [4] = Faecal elimination of aliskiren following single oral dose of [14C] aliskiren hemifumarate at 500 mg.Kg-1 level in mouse; assay type: ADME, organism-based, TgRasH2, Feces; settings: in vivo
# Cytochrome P450 2D6 [5] = biological target: T2, Cytochrome P450 2D6 (Homo sapiens, UniProt P10635); assay: Activity of human recombinant CYP2D6 assessed as enzyme contribution (% total relative CL) towards [14C]SPP100 hemifumarate metabolism in human liver microsome; assay type: ADME; settings: microsomes
# T2 sequence (P10635 whole entry): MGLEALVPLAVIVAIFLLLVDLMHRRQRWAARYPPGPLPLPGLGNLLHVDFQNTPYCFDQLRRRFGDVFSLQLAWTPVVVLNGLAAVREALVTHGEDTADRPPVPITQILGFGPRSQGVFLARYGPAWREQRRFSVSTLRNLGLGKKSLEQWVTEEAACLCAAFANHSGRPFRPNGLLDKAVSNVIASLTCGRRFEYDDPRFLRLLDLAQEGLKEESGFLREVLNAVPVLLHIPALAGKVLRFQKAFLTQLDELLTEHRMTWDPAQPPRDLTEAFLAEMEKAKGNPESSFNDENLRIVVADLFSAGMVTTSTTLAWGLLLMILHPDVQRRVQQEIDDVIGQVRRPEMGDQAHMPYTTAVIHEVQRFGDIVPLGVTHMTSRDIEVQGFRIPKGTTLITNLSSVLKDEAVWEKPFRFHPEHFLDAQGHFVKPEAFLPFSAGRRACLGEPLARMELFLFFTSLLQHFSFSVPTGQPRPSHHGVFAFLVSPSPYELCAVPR
# [6] = Concentration of radioactivity in the liver following repeated oral administration of [14C] aliskiren hemifumarate at 100 mg.Kg-1 level studied at 2h after 7th dose in rat; assay type: ADME, organism-based, Albino HAN:WIST; settings: in vivo
# [7] = Excretion (168h) of radioactivity in faeces following intravenous administration of [14C] aliskiren hemifumarate at 10 mg.Kg-1 level in rat; assay type: ADME, organism-based, Lister-Hooded, Feces; settings: in vivo
# [8] = Excretion of radioactivity (48-72h) in urine following single oral dose of 100 mg.Kg-1 [14C] aliskiren hemifumarate in rat; assay type: ADME, organism-based, Albino HAN:WIST; settings: in vivo
# [9] = Concentration of radioactivity in the colon wall following repeated oral administration of [14C] aliskiren hemifumarate at 100 mg.Kg-1 level studied at 24h after 7th dose in rat; assay type: ADME, organism-based, Albino HAN:WIST; settings: in vivo
# Cytochrome P450 2D6 [10] = biological target: T2, Cytochrome P450 2D6; assay: Metabolic clearance (ul.min.nmol-1 CYP) of aliskiren hemifumarate for CYP2D6 was determined in human liver microsome incubated with [14C]SPP100 hemifumarate; assay type: ADME; settings: microsomes
# [11] = Excretion of radioactivity (0-384h) in urine following 10 day repeated oral administration of [14C] aliskiren hemifumarate at 100 mg.Kg-1 level studied in rat; assay type: ADME, organism-based, Albino HAN:WIST; settings: in vivo
# [12] = % of radioactivity (48h) recovered in bile of receiver rat following duodenal infusion of radioactivity through bile from donor rat treated with single intravenous administration of 10 mg.Kg-1 [14C] aliskiren hemifumarate; assay type: ADME, organism-based, HAN:WIST(SPF); settings: in vivo
# [13] = Cmax normalised (0-168h) of total radioactivity following single oral administration of [14C] aliskiren hemifumarate at 3 mg.Kg-1 level in marmoset; assay type: ADME, organism-based, Callithrix jacchus, Plasma; settings: in vivo
# [14] = Concentration of radioactivity in the colon wall following repeated oral administration of [14C] aliskiren hemifumarate at 100 mg.Kg-1 level studied at 2h after 3rd dose in rat; assay type: ADME, organism-based, Albino HAN:WIST; settings: in vivo
# [15] = Cmax of aliskiren hemifumarate following 4 week oral dietary dosing of aliskiren hemifumarate at 2000 mg.Kg-1 level in female mouse; assay type: ADME, organism-based; settings: CB6F1-TGrasH2, mouse, in vivo
# [16] = Tmax of aliskiren hemifumarate following repeated oral administration of [14C] aliskiren hemifumarate at 100 mg.Kg-1 level studied after 2h of dosing on day 1 in rat; assay type: ADME, organism-based, Albino HAN:WIST; settings: in vivo
# [17] = Cmaxspec of aliskiren hemifumarate following 2 week oral dosing of aliskiren hemifumarate at 50 mg.Kg-1 level studied on day 1 in female Callithrix jacchus; assay type: ADME, organism-based, Plasma; settings: marmoset, in vivo, 336 h
# [18] = Effect of 4 week oral dietary dosing of aliskiren hemifumarate at 2000 mg.Kg-1 level on ovarian follicular atresia in female mouse; assay type: toxicity, organism-based, CB6F1-TGrasH2, Ovarian follicle; settings: in vivo, 672 h
# [19] = biological target: Voltage-gated inwardly rectifying potassium channel KCNH2 (Homo sapiens, UniProt Q12809); assay: Inhibitory concentration of aliskiren hemifumarate against cloned hERG channel expressed in human embryonic kidney cell; assay type: cell-based; settings: hek293
# Voltage-gated inwardly rectifying potassium channel KCNH2, sequence (Q12809 whole entry): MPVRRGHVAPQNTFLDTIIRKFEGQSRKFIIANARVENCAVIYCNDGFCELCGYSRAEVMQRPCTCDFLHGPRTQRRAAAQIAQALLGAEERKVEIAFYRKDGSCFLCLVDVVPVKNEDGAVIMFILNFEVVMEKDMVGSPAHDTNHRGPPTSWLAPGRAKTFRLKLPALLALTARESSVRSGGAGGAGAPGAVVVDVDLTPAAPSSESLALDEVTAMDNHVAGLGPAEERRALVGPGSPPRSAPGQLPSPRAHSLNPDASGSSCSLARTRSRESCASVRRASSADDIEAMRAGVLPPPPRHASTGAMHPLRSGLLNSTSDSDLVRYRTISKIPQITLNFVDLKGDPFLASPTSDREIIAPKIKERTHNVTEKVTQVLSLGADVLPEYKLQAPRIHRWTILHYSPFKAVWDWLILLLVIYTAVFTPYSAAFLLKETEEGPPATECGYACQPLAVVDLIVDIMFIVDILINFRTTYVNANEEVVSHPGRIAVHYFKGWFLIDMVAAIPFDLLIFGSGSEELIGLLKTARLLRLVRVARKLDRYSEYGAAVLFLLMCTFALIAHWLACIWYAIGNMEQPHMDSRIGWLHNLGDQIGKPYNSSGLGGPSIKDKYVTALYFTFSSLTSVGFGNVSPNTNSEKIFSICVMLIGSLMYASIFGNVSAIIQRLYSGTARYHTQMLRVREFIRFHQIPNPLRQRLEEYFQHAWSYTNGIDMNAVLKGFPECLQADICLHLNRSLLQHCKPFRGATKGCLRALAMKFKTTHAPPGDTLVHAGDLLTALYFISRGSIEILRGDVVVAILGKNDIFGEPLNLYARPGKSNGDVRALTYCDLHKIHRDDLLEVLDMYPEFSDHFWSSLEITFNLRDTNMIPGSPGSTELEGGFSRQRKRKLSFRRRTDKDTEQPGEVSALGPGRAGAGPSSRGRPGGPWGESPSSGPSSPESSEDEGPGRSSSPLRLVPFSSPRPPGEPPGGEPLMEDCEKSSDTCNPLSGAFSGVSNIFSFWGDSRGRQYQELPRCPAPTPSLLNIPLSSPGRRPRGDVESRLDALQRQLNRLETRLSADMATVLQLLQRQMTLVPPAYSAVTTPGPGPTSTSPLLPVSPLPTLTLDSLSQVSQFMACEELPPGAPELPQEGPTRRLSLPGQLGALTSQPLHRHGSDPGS
# [20] = Effect of 2 week oral dosing of aliskiren hemifumarate at 50 mg.Kg-1 level on hematological parameter values in male Callithrix jacchus; assay type: toxicity, organism-based, Plasma; settings: marmoset, in vivo, 336 h
# [21] = Cmax of aliskiren hemifumarate following 2 week oral dosing of aliskiren hemifumarate at 100 mg.Kg-1 level studied on day 1 in male Callithrix jacchus; assay type: ADME, organism-based; settings: marmoset, plasma
# [22] = Cmaxspec of aliskiren hemifumarate following 2 week oral dosing of aliskiren hemifumarate at 50 mg.Kg-1 level studied on day 14 in female Callithrix jacchus; assay type: ADME, organism-based, Plasma; settings: marmoset, in vivo, 336 h
# hERG (KCNH2) = hERG (KCNH2) (Homo sapiens, UniProt Q12809); assay: Effects of 100 uM aliskiren hemifumarate on current through cloned hERG channel expressed in human embryonic kidney cell; assay type: cell-based; design: conc 100 uM, dose level Intermediate; settings: HEK293 cells that express cloned hERG channel, read-out: Inhibitory activity
# hERG (KCNH2), sequence (Q12809 whole entry): as above
# [23] = AUC of aliskiren hemifumarate following 8 day once-daily dosing of SPP100B oral solution at 640 mg level studied on day 8 in men; assay type: ADME, organism-based; settings: male, human, plasma
# [24] = Cmax (0-96h) of unlabeled aliskiren hemifumarate following intravenous administration of aliskiren hemifumarate at 10 mg.Kg-1 level in rat; assay type: ADME, organism-based; settings: Albino HAN:WIST, plasma
# [25] = Cmax/dose of aliskiren hemifumarate following 4 week oral dietary dosing of aliskiren hemifumarate at 1500 mg.Kg-1 level in female mouse; assay type: ADME, organism-based, CB6F1-TGrasH2; settings: in vivo, 672 h
# [26] = Cmax of aliskiren hemifumarate following single dosing of SPP100B oral solution at 80 mg level studied on day 1 in men; assay type: ADME, organism-based; settings: male, human, plasma
# [27] = AUC (0-96 or 0-168h) of unlabeled aliskiren hemifumarate following single intravenous administration of aliskiren hemifumarate at 1 mg.Kg-1 level in marmoset; assay type: ADME, organism-based, Callithrix jacchus; settings: plasma
# [28] = AUC(0-24h) of aliskiren hemifumarate following 2 week oral dosing of aliskiren hemifumarate at 50 mg.Kg-1 level studied on day 14 in male Callithrix jacchus; assay type: ADME, organism-based; settings: marmoset, plasma
# [29] = Tmax of aliskiren hemifumarate following 4 week oral dietary dosing of aliskiren hemifumarate at 2000 mg.Kg-1 level in male mouse; assay type: ADME, organism-based; settings: CB6F1-TGrasH2, mouse, in vivo
smiles,measurement,setting,value
COCCCOc1cc(C[C@@H](C[C@H](N)[C@@H](O)C[C@H](C(=O)NCC(C)(C)C(N)=O)C(C)C)C(C)C)ccc1OC,half-life,[1],34 h
same,Compound recovery,[2],> 40%
same,inhibition at 20 µM,CYP2C19,-1.5%
same,inhibition at 200 µM,CYP1A2,-12.4%
COCCCOc1cc(C[C@@H](C[C@H](N)[C@@H](O)C[C@H](C(=O)NCC([14CH3])([14CH3])C(N)=O)C(C)C)C(C)C)ccc1OC.O=C(O)/C=C/C(=O)O,Radiolabel recovery,[3],36.1%
same,Radiolabel recovery,[4],"OUTCOME = Observed, VALUE = Elimination of aliskiren occurred mainly via the biliary or faecal route"
same,Activity,Cytochrome P450 2D6 [5],0.38%
same,Radiolabel recovery,[6],OUTCOME = Detected
same,Radiolabel recovery,[7],75%
same,Radiolabel recovery,[8],0.04%
same,Radiolabel recovery,[9],"OUTCOME = Observed, VALUE = Highest radioactivity concentration was observed"
same,CL,Cytochrome P450 2D6 [10],74.4 µL·min/nmol
same,Radiolabel recovery,[11],0.3%
same,Radiolabel recovery,[12],2.2%
same,Cmax normalised,[13],0.12 (umol/L)/(mg/kg)
same,Radiolabel recovery,[14],"OUTCOME = Observed, VALUE = Highest radioactivity concentration was observed"
COCCCOc1cc(C[C@@H](C[C@H](N)[C@@H](O)C[C@H](C(=O)NCC(C)(C)C(N)=O)C(C)C)C(C)C)ccc1OC.COCCCOc1cc(C[C@@H](C[C@H](N)[C@@H](O)C[C@H](C(=O)NCC(C)(C)C(N)=O)C(C)C)C(C)C)ccc1OC.O=C(O)/C=C/C(=O)O [ALISKIREN FUMARATE],Cmax,[15],1230 ng/mL
same,Tmax(1),[16],2 h
same,Cmax normalised,[17],0.177 (ug/ml)/(mg/kg)
same,Change in ovarian follicular atresia,[18],OUTCOME = Increased. No animals died during the study.
same,IC25,[19],670.9 µM
same,IC50,[19],OUTCOME = IC50 was not calculated since inhibition did not reach 50% level
same,Change in hematology,[20],OUTCOME = Hematological parameter values did not differ from control values. No animals died during the study.
same,Cmax,[21],7200 ng/mL
same,Cmax normalised,[22],0.202 (ug/ml)/(mg/kg)
same,inhibition at 100 µM,hERG (KCNH2),6%
same,AUC at 192 h,[23],2970 ng·h/mL
same,Cmax,[24],29.2 µM
same,Cmax normalised,[25],0.68 (ng/mL)/(mg/kg/day)
same,Cmax,[26],11 ng/mL
same,AUC at 168 h,[27],49 µM·h
same,AUC at 24 h,[28],107000 ng·h/mL
same,Tmax,[29],1 h
